Patent US20250263404A1, “AMINOPYRIDINES AS ACTIVATORS OF PI3 KINASE” (UCL Business Ltd, priority 2021, published 2025)

Legend:
p110α/p85α = target: T1, p110α/p85α (Homo sapiens, UniProt P42336); assay: HDX-MS of full-length p110α/p85α; settings: wild-type p110α/p85α
T1 construct: Full-length p110α was expressed in a complex with full-length p85α (for biochemistry and HDX-MS); 6xHis followed by TEV protease site (N); made in house; host or cells: Spodoptera frugiperda Sf9 (baculovirus co-infection; plasmids OP831 and OP809)
T1 sequence (P42336 whole entry): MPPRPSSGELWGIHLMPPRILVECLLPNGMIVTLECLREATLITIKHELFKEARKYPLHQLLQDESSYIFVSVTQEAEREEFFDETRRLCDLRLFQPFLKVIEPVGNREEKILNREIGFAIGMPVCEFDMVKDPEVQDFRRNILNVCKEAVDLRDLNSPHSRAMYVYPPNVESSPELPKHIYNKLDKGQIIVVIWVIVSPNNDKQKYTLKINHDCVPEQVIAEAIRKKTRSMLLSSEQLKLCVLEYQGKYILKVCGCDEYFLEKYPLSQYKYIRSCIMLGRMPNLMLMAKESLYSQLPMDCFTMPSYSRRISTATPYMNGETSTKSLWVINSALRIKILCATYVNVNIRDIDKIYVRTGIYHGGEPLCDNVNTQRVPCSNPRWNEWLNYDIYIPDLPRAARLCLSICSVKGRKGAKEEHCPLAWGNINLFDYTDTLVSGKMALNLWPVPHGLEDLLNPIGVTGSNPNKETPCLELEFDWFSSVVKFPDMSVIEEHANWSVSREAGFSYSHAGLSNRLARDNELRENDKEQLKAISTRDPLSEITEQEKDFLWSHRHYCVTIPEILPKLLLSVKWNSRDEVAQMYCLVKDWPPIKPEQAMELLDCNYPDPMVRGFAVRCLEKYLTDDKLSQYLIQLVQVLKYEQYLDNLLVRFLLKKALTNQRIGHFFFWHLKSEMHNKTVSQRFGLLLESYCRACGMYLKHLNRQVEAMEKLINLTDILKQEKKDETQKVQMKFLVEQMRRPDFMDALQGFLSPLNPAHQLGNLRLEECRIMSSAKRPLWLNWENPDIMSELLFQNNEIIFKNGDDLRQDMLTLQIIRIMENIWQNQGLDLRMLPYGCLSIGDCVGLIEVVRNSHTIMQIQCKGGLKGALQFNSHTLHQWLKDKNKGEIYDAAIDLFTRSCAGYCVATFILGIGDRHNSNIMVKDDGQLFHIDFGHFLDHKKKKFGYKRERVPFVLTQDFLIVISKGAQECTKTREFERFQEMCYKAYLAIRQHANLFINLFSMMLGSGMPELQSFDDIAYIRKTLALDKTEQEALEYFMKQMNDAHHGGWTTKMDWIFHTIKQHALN
T1 sequence (P27986 whole entry partner): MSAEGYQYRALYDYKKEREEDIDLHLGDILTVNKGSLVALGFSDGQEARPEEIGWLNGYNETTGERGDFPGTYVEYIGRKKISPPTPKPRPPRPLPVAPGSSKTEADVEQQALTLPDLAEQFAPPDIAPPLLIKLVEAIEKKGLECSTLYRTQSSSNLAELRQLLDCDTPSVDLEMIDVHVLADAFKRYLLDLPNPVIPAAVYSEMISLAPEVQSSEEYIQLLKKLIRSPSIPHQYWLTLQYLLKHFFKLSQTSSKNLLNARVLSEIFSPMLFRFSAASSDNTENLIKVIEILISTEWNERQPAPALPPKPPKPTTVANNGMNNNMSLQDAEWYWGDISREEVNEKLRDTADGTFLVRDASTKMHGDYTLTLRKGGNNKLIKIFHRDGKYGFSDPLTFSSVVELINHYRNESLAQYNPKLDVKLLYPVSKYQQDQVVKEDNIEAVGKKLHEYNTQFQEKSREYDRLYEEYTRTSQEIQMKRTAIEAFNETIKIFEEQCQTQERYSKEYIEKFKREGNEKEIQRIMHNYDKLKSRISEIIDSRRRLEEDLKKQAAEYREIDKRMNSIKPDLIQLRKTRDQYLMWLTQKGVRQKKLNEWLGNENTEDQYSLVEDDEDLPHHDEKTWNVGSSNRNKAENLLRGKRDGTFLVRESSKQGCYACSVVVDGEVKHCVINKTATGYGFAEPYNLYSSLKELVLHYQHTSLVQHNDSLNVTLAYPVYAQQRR
Description: The inventors used hydrogen-deuterium exchange mass spectrometry (HDX-MS) which allows the investigation of compound binding sites and conformational changes using soluble, native proteins, and which has been key to unravel the molecular mechanisms of physiological activation of class IA PI3Ks. Class IA PI3K activation occurs through de-inhibition of the auto-inhibited p85/p110 complex, via the release of inhibitory interactions between p85 and p110, upon binding of the complex to bis-phosphorylated motifs in membrane-resident receptors or cytosolic adaptors. […]
In total, three biological replicates, i.e., three separate protein preparations, each with exchange experiments were carried out in triplicate were conducted. […] A “blank” sample of protein dilution buffer with quench was run between samples, and carry-over of peptides was routinely monitored. […] Data was analysed using Protein Lynx Global Server (Waters) and DynamX (Waters). […] Data quality, experiment design, and reporting of data meets the criteria as determined by the HDX-MS community (Masson, G. R. et al. Nat Methods 16, 595-602 (2019)). […]

mice = assay: In vivo model of ischaemia reperfusion injury in mice; design: species or system mouse; settings: 10 mg/kg via jugular vein
Protocol: Male C57/BL6 mice weighing 25-30 g were used throughout. Animals received humane care in accordance with the United Kingdom Home Office Guide on the Operation of Animal (Scientific Procedures) Act 1986, Project Licence PPL70/15358.
Animals were anaesthetised with intraperitoneal (i.p.) sodium pentobarbital at a dose of 100 mg/kg. The mice were intubated by tracheotomy and ventilated with room air using a small animal ventilator (MinVent, Type 845, Hugo Sachs Elektronik, Harvard Apparatus). The mice were then placed on a heating pad and the rectal temperature monitored and maintained at ˜37° C. using a temperature controller. During the experiments, both ECG and heart rate were continuously recorded using a PowerLab (Adinstrument, USA). […]
After 120 min reperfusion, the chest was re-opened, the heart was removed and cannulated via the thoracic aorta, and blood within the heart was washed out with saline. […] The total area of myocardium, the non-ischaemic area (which is stained with Evans blue), and the infarct area (i.e. the white area) of each slice were measured using Image-J software. The “area at risk” was calculated by subtraction of the non-ischaemic area (blue area) from the whole slice area and expressed as “percentage of the left ventricle”, and “infarct size” calculated as infarct area as a percentage of the area at risk. […]

CCN1CCN(c2ccc(Nc3cc(Nc4cccc5c4N(C(C)=O)CC5)ccn3)cc2)CC1 [Example 1938]
Movement of the adapter-binding domain (p110α/p85α): −/? | pAKT^S473 levels in the hearts of mice (mice): corresponding increase in pAKT^S473 levels | cardioprotection in mice (mice; 15 min prior to reperfusion): significant cardioprotection
